{"source": "EPA's ToxRefDB 2", "key": {"rat [1]": {"test_system": "rat", "conditions": "Combined chronic toxicity/carcinogenicity, sprague dawley, Oral, Feed, dose end: 104 week"}, "mouse [2]": {"test_system": "mouse", "conditions": "Carcinogenicity, cd1, Oral, Feed, dose end: 105 week, group: systemic"}, "rat [3]": {"test_system": "rat", "conditions": "Multigenerational reproductive toxicity study, other, Oral, Feed, dose end: 2 generation"}, "rabbit": {"test_system": "rabbit", "conditions": "Prenatal developmental toxicity study; new zealand white; Oral; Gavage/Intubation; dose end: 19 GD; group: maternal; reproductive / reproductive performance / aborted / aborted + systemic / in life observation / body weight / body weight gain + systemic / …"}, "rat [4]": {"test_system": "rat", "conditions": "Subchronic oral toxicity in rodents, fischer, Feed, dose end: 90 day, group: systemic, systemic / pathology microscopic / stomach / hyperplasia"}, "dog [5]": {"test_system": "dog", "conditions": "Chronic toxicity; beagle; Oral; Capsule; dose end: 52 week; group: systemic; systemic / pathology microscopic / kidney / dilatation + systemic / pathology microscopic / kidney / fibrosis + systemic / urinalysis / …"}, "rat [6]": {"test_system": "rat", "conditions": "Combined chronic toxicity/carcinogenicity, fischer, Oral, Feed, dose end: 104 week, group: systemic"}, "dog [7]": {"test_system": "dog", "conditions": "Subchronic oral toxicity in nonrodent, beagle, Capsule, dose end: 13 week, group: systemic"}, "mouse [8]": {"test_system": "mouse", "conditions": "Carcinogenicity; b6c3f1; Oral; Feed; dose end: 104 week; group: systemic; systemic / in life observation / body weight / body weight gain + systemic / in life observation / food consumption / food consumption + …"}, "rat [9]": {"test_system": "rat", "conditions": "Multigenerational reproductive toxicity study, other, Oral, Feed, dose end: 2 generation", "remark": "listed apart in the source"}, "[10]": {"conditions": "group: cholinesterase, cholinesterase / cholinesterase / cholinesterase / erythrocyte cholinesterase (che) + cholinesterase / cholinesterase / cholinesterase / …"}, "[11]": {"conditions": "group: cholinesterase, cholinesterase / cholinesterase / cholinesterase / plasma cholinesterase (che)"}, "[12]": {"conditions": "group: systemic, systemic / clinical chemistry / urea nitrogen / urea nitrogen"}, "[13]": {"conditions": "group: systemic, systemic / clinical chemistry / urea nitrogen / urea nitrogen + systemic / organ weight / brain / relative to body weight + systemic / organ…"}, "[14]": {"conditions": "systemic / in life observation / body weight / body weight gain"}, "[15]": {"conditions": "group: cholinesterase, cholinesterase / cholinesterase / cholinesterase / cholinesterase (che)"}, "[16]": {"conditions": "group: offspring, systemic / in life observation / body weight / offspring (pup) weight"}, "[17]": {"conditions": "group: offspring, systemic / in life observation / body weight / offspring (pup) weight + developmental / offspring survival late / lactation index / …"}, "[18]": {"conditions": "group: parental, systemic / in life observation / body weight / body weight gain"}, "[19]": {"conditions": "group: reproductive, reproductive / offspring survival early / litter size / litter size"}, "[20]": {"conditions": "systemic / clinical chemistry / potassium / potassium + systemic / in life observation / clinical signs / abnormal feces + systemic / …"}, "[21]": {"conditions": "group: parental, systemic / pathology gross / stomach / thickened + systemic / pathology microscopic / stomach / acanthosis + systemic / pathology …"}}, "data": [{"smiles": "COP(=O)(OC)SCn1c(=O)oc2cc(Cl)cnc21", "note": "[Azamethiphos]", "values": [{"measurement": "LOAEL", "setting": "rat [1]; [10]", "result": 8.1, "unit": "mg/kg/day"}, {"measurement": "NOAEL", "setting": "rat [1]; [10]", "result": 0.8, "unit": "mg/kg/day"}, {"measurement": "LEL", "setting": "rat [1]; [11]", "result": 1.1, "unit": "mg/kg/day"}, {"measurement": "NEL", "setting": "rat [1]; [11]", "result": "< 1.1", "unit": "mg/kg/day"}, {"measurement": "LEL", "setting": "rat [1]; [12]", "result": 0.8, "unit": "mg/kg/day"}, {"measurement": "NEL", "setting": "rat [1]; [12]", "result": "< 0.8", "unit": "mg/kg/day"}, {"measurement": "LOAEL", "setting": "rat [1]; [13]", "result": "> 62.6", "unit": "mg/kg/day"}, {"measurement": "NOAEL", "setting": "rat [1]; [13]", "result": "≥ 62.6", "unit": "mg/kg/day"}, {"measurement": "LEL", "setting": "mouse [2]; [14]", "result": 6.2, "unit": "mg/kg/day"}, {"measurement": "NEL", "setting": "mouse [2]; [14]", "result": "< 6.2", "unit": "mg/kg/day"}, {"measurement": "LOAEL", "setting": "mouse [2]; systemic / pathology microscopic / intestine small / hyperplasia", "result": 60.2, "unit": "mg/kg/day"}, {"measurement": "NOAEL", "setting": "mouse [2]; systemic / pathology microscopic / intestine small / hyperplasia + systemic / hematology / hematocrit (hct) / hematocrit (hct) + systemic / …", "result": 6.2, "unit": "mg/kg/day"}, {"measurement": "LEL", "setting": "rat [3]; [15]", "result": 10, "unit": "mg/kg/day"}, {"measurement": "LOAEL", "setting": "rat [3]; [15]", "result": 10, "unit": "mg/kg/day"}, {"measurement": "NEL", "setting": "rat [3]; [15]", "result": 2, "unit": "mg/kg/day"}, {"measurement": "NOAEL", "setting": "rat [3]; [15]", "result": 2, "unit": "mg/kg/day"}, {"measurement": "LOAEL", "setting": "rat [3]; [16]", "result": 50, "unit": "mg/kg/day"}, {"measurement": "LEL", "setting": "rat [3]; [17]", "result": 50, "unit": "mg/kg/day"}, {"measurement": "NEL", "setting": "rat [3]; [17]", "result": 10, "unit": "mg/kg/day"}, {"measurement": "NOAEL", "setting": "rat [3]; [17]", "result": 10, "unit": "mg/kg/day"}, {"measurement": "LEL", "setting": "rat [3]; [18]", "result": 10, "unit": "mg/kg/day"}, {"measurement": "LOAEL", "setting": "rat [3]; [18]", "result": 10, "unit": "mg/kg/day"}, {"measurement": "NEL", "setting": "rat [3]; [18]", "result": 2, "unit": "mg/kg/day"}, {"measurement": "NOAEL", "setting": "rat [3]; [18]", "result": 2, "unit": "mg/kg/day"}, {"measurement": "LEL", "setting": "rat [3]; [19]", "result": 50, "unit": "mg/kg/day"}, {"measurement": "LOAEL", "setting": "rat [3]; [19]", "result": 50, "unit": "mg/kg/day"}, {"measurement": "NEL", "setting": "rat [3]; [19]", "result": 10, "unit": "mg/kg/day"}, {"measurement": "NOAEL", "setting": "rat [3]; [19]", "result": 10, "unit": "mg/kg/day"}]}, {"smiles": "CCC([O-])=C1C(=O)CC(C(=O)[O-])CC1=O.[Ca+2]", "note": "(stereo not given) [Prohexadione-calcium]", "values": [{"measurement": "LEL", "setting": "rabbit", "result": 200, "unit": "mg/kg/day"}, {"measurement": "LOAEL", "setting": "rabbit", "result": 200, "unit": "mg/kg/day"}, {"measurement": "NEL", "setting": "rabbit", "result": 40, "unit": "mg/kg/day"}, {"measurement": "NOAEL", "setting": "rabbit", "result": 40, "unit": "mg/kg/day"}, {"measurement": "LEL", "setting": "rat [4]", "result": 734, "unit": "mg/kg/day"}, {"measurement": "LOAEL", "setting": "rat [4]", "result": 734, "unit": "mg/kg/day"}, {"measurement": "NEL", "setting": "rat [4]", "result": 73.1, "unit": "mg/kg/day"}, {"measurement": "NOAEL", "setting": "rat [4]", "result": 73.1, "unit": "mg/kg/day"}, {"measurement": "LEL", "setting": "dog [5]", "result": 200, "unit": "mg/kg/day"}, {"measurement": "LOAEL", "setting": "dog [5]", "result": 200, "unit": "mg/kg/day"}, {"measurement": "NEL", "setting": "dog [5]", "result": 20, "unit": "mg/kg/day"}, {"measurement": "NOAEL", "setting": "dog [5]", "result": 20, "unit": "mg/kg/day"}, {"measurement": "LOAEL", "setting": "rat [6]; systemic / hematology / leukocyte (wbc) count differential / leukocyte (wbc)", "result": 469, "unit": "mg/kg/day"}, {"measurement": "NOAEL", "setting": "rat [6]; systemic / hematology / leukocyte (wbc) count differential / leukocyte (wbc) + systemic / in life observation / body weight / body weight + …", "result": 93.9, "unit": "mg/kg/day"}, {"measurement": "LEL", "setting": "rat [6]; systemic / pathology microscopic / thyroid gland / dilatation", "result": 114, "unit": "mg/kg/day"}, {"measurement": "NEL", "setting": "rat [6]; systemic / pathology microscopic / thyroid gland / dilatation + systemic / in life observation / body weight / body weight + systemic / in …", "result": 22.3, "unit": "mg/kg/day"}, {"measurement": "NEL", "setting": "dog [7]; [20]", "result": 80, "unit": "mg/kg/day"}, {"measurement": "NOAEL", "setting": "dog [7]; [20]", "result": 80, "unit": "mg/kg/day"}, {"measurement": "LOAEL", "setting": "dog [7]; systemic / clinical chemistry / potassium / potassium + systemic / pathology microscopic / kidney / dilatation", "result": 400, "unit": "mg/kg/day"}, {"measurement": "LEL", "setting": "dog [7]; systemic / clinical chemistry / potassium / potassium + systemic / pathology microscopic / kidney / dilatation + systemic / in life …", "result": 400, "unit": "mg/kg/day"}, {"measurement": "LEL", "setting": "mouse [8]", "result": 2850, "unit": "mg/kg/day"}, {"measurement": "LOAEL", "setting": "mouse [8]", "result": 2850, "unit": "mg/kg/day"}, {"measurement": "NEL", "setting": "mouse [8]", "result": 279, "unit": "mg/kg/day"}, {"measurement": "NOAEL", "setting": "mouse [8]", "result": 279, "unit": "mg/kg/day"}, {"measurement": "LEL", "setting": "rat [9]; [16]", "result": 385, "unit": "mg/kg/day"}, {"measurement": "LOAEL", "setting": "rat [9]; [16]", "result": 3850, "unit": "mg/kg/day"}, {"measurement": "NEL", "setting": "rat [9]; [16]", "result": 35.5, "unit": "mg/kg/day"}, {"measurement": "NOAEL", "setting": "rat [9]; [16]", "result": 385, "unit": "mg/kg/day"}, {"measurement": "LOAEL", "setting": "rat [9]; group: parental, systemic / in life observation / mortality / mortality", "result": 385, "unit": "mg/kg/day"}, {"measurement": "NOAEL", "setting": "rat [9]; group: parental, systemic / in life observation / mortality / mortality + systemic / in life observation / body weight / body weight + systemic / pathology …", "result": 35.5, "unit": "mg/kg/day"}, {"measurement": "LEL", "setting": "rat [9]; [21]", "result": 35.5, "unit": "mg/kg/day"}, {"measurement": "NEL", "setting": "rat [9]; [21]", "result": "< 35.5", "unit": "mg/kg/day"}]}]}
